Data: paper PMC7577153, “Identification of Small-Molecule Inhibitors Targeting Porphyromonas gingivalis Interspecies Adherence and Determination of Their In Vitro and In Vivo Efficacies” (Antimicrobial Agents and Chemotherapy, 2020)

Assays:
S. gordonii = test: microbicidal activity: growth curve in medium with compound; assay type: cell-based, Streptococcus gordonii; conditions: 40 μM, 24 h, OD600
Procedure: (§1) To confirm that N7, N17, and V8 function by inhibiting P. gingivalis adherence to S. gordonii rather than acting as antibacterial agents, the microbicidal activity of the compounds was determined by growing the organisms in medium containing 40 μM of each compound for 24 h. […] The structures of compounds N7, N17, and V8 are shown in Fig. 3A, B, and C, respectively. In addition, overlays of compound N17 with the NITVK motif and compound V8 with the VXXLL motif of Ag I/II are shown in Fig. 3D and E, respectively.
(§2) FIG 2 S. gordonii (A) and P. gingivalis (B) were grown for 24 h in medium containing 40 μM of each compound, and growth was quantified at various time points by measuring the OD600 for each culture. One-way analysis of variance (ANOVA) was performed to determine statistical significance.
(§3) P. gingivalis ATCC 33277 was cultured in reduced Trypticase soy broth-yeast extract (TSBY) medium comprised of 30 g/liter TSB (Difco Laboratories Inc., Detroit, MI), 5% (wt/vol) yeast extract supplemented with 5 mg/liter hemin and 1 mg/liter menadione under anaerobic conditions (10% CO2, 10% H2, and 80% N2) at 37°C for 48 h. Reduced TSBY medium was prepared by incubating the medium under anaerobic conditions at 37°C for 24 h prior to bacterial inoculation. Streptococcus gordonii DL1 was grown in brain heart infusion (BHI) (Difco Laboratories Inc.) broth supplemented with 5% (wt/vol) yeast extract under anaerobic conditions as described above.

P. gingivalis = test: as above; assay type: cell-based, Porphyromonas gingivalis; conditions: 40 μM, 24 h, OD600
Procedure: as §1, §2, §3

P. gingivalis virulence = test: murine model of periodontitis (alveolar bone loss); assay type: in vivo, BALB/c/ByJ mice; conditions: for alveolar bone loss relative to sham-infected mice / alveolar bone loss versus infected untreated mice: mice infected with S. gordonii and P. gingivalis, compound 40 μM; for alveolar bone loss versus infected untreated mice: P < 0.001
Procedure: The in vivo activity of compounds N7, N17, and V8 was determined using a murine model of periodontitis as described by Deap et al. ([16]). […] Therefore, P. gingivalis virulence was assessed by alveolar bone loss, which was determined by measuring the distance from the alveolar bone crest (ABC) to the cemento enamel junction (CEJ).
The protocol used in this study (protocol 16486) was approved by the Institutional Animal Care and Use Committee at the University of Louisville under federal guidelines for the use and care of laboratory animals. Ten-week-old BALB/c/ByJ specific-pathogen-free mice were obtained from Jackson Laboratory (Bar Harbor, ME) and housed in the University of Louisville Research Resource Center animal facility. During the entire course of the study, mice were fed with Lab Diet 5001 (Purina Mills, LLC, Gray Summit, MO).
Oral infection of the mice was carried out essentially as described by Deap et al. ([18]). Prior to infection, mice were subjected to a combined antibiotic treatment for 10 days by providing animals with water ad libitum containing 800 μg/ml sulfamethoxazole (MP Biomedical, Solon, OH) and 400 μg/ml trimethoprim (Sigma, St. Louis, MO). Four days after the conclusion of the antibiotic treatment, mice were infected by oral gavage with 10^9 CFU of S. gordonii suspended in 2% carboxymethylcellulose (CMC; MP Biomedical) in sterile PBS using a 2.25-mm feeding needle (Popper and Son, Inc., New Hyde Park, NY). Infections were conducted every other day for a period of 10 days. Subsequently, mice were infected with 10^9 CFU P. gingivalis suspended in 2% CMC in PBS alone or in 2% CMC in PBS containing the small-molecule inhibitors every other day for 10 days. After the last infection with P. gingivalis, the mice were rested for 47 days and then euthanized by carbon dioxide asphyxiation.
To obtain the mouse skulls, the heads were removed and autoclaved for 15 min to remove flesh and musculature. The defleshed skulls were then immersed in 3% hydrogen peroxide overnight at room temperature to remove any remaining flesh. The skulls were submerged in deionized water to remove residual hydrogen peroxide, soaked in 1% bleach solution for 30 sec, sonicated at 14 V for 1 min, and washed again with deionized water. Samples were brushed using toothpaste, sonicated again in 1% bleach for an additional 30 sec at 14 V, and washed with water. The cleaned skulls were stained by immersion in 1% methylene blue for 15 sec, followed by washing with water until the excess dye was removed.
To measure alveolar bone loss, a dissecting microscope fitted with a video imaging marker measurement system (model VIA-170K; Fryer) was used. Bone loss was determined by measuring the distance between the alveolar bone crest (ABC) and cemento-enamel junction (CEJ) at eight sites on the buccal sides of both left and right maxillary molars. […] Data were analyzed using one-way analysis of variance (ANOVA; Graph Pad Prism, La Jolla, CA), and a pairwise parametric analysis of variance using a Bonferroni multiple-comparison posttest was used to determine the statistical difference among the individual mouse groups. A P value of ≤0.05 was considered statistically significant.

HL60 cells = test: total cellular ATP (CellTiterGlo); assay type: cell-based, human; conditions: HL-60 cells, 5, 20 and 40 μM, 18 h
Procedure: (§4) To determine the metabolic activity of cells, the total cellular ATP level was measured in cell culture samples using the CellTiterGlo reagent (Promega Inc. Madison, WI). Cells were grown as described above in the presence of the desired concentration of compounds. The spent medium was decanted, and cells were washed three times with PBS and subsequently incubated with 100 μl of the CellTiterGlo substrate. To facilitate the reaction, plates were incubated at room temperature for 2 min with shaking and for an additional 10 min without shaking. Total light production was measured using a Victor 3 multilabel plate reader (PerkinElmer).

J774A.1 cells = test: total cellular ATP (CellTiterGlo); assay type: cell-based, mouse; conditions: J774A.1 cells, 5, 20 and 40 μM, 18 h
Procedure: as §4

For `Cl.N=c1n(CCN2CCCCC2)c2ccccc2n1CC(O)COc1ccc(Cl)cc1` (centres unmarked) [N7, 1-(4-chlorophenoxy)-3-{2-imino-3-[2-(piperidin-1-yl)ethyl]-2,3-dihydro-1H-1,3-benzodiazol-1-yl}propan-2-ol hydrochloride], the “growth curve versus medium alone or 0.1% DMSO” value (S. gordonii) was “not significantly different”, the “growth curve versus medium alone or 0.1% DMSO” value (P. gingivalis) was “not significantly different” and the “alveolar bone loss relative to sham-infected mice” value (P. gingivalis virulence) was “modest increase in bone loss relative to the sham-infected group”. The “alveolar bone loss versus infected untreated mice” value (P. gingivalis virulence) was “significant reduction in alveolar bone loss” and the “overt signs of distress or toxicity in treated mice” value (P. gingivalis virulence; transient exposure (∼20 min) during infection) was “did not exhibit any overt signs of distress or toxicity”.

For `O=C(Nc1ccccc1O)c1cccc(N2C(=O)c3ccc(C(=O)Nc4ccccc4O)cc3C2=O)c1` [N17, N-(2-hydroxyphenyl)-2-{3-[(2-hydroxyphenyl)carbamoyl]phenyl}-1,3-dioxo-2,3-dihydro-1H-isoindole-5-carboxamide], the “growth curve versus medium alone or 0.1% DMSO” value (S. gordonii) was “not significantly different”, the “growth curve versus medium alone or 0.1% DMSO” value (P. gingivalis) was “not significantly different” and the “alveolar bone loss relative to sham-infected mice” value (P. gingivalis virulence) was “not significantly different from sham-infected animals”. For the same compound, the “alveolar bone loss versus infected untreated mice” value (P. gingivalis virulence) was “significant reduction in alveolar bone loss”, the ATP levels (HL60 cells) was “no significant effect” and the ATP levels (J774A.1 cells) was “no significant effect”.

`Cc1cc([C@H]2CCCN(CC(=O)NC3(C#N)CCCC3)C2)n[nH]1` [V8, N-(1-cyanocyclopentyl)-2-[3-(5-methyl-1H-pyrazol-3-yl)piperidin-1-yl] acetamide] was tested, and the “growth curve versus medium alone or 0.1% DMSO” value (S. gordonii) was “not significantly different”, the “growth curve versus medium alone or 0.1% DMSO” value (P. gingivalis) was “not significantly different” and the “alveolar bone loss relative to sham-infected mice” value (P. gingivalis virulence) was “modest increase in bone loss relative to the sham-infected group”. The “alveolar bone loss versus infected untreated mice” value (P. gingivalis virulence) was “significant reduction in alveolar bone loss”, the ATP levels (HL60 cells) was “no significant effect” and the ATP levels (J774A.1 cells) was “no significant effect”.
